Experimental data as given in ChEMBL document CHEMBL1131216, “Anhydrolide macrolides. 2. Synthesis and antibacterial activity of 2,3-anhydro-6-O-methyl 11,12-carbazate erythromycin A analogues” (1998).
Values after ≈ are worked out from the molar mass of the structure shown.

How the values were obtained:
Format in all cases: functional
[1] = tested on: Haemophilus influenzae; experiment: In vitro antibacterial activity of DILL strain of Gram negative bacteria Haemophilus influenzae
[2] = tested on: Streptococcus pneumoniae; experiment: In vitro antibacterial activity of 5649 strain of Gram positive bacteria Streptococcus pneumoniae
[3] = tested on: Streptococcus pneumoniae; experiment: In vitro antibacterial activity of 5979 strain of Gram positive bacteria Streptococcus pneumoniae
[4] = tested on: Streptococcus pneumoniae; experiment: In vitro antibacterial activity of ATCC 6303 strain of Gram positive bacteria Streptococcus pneumoniae
[5] = tested on: Staphylococcus aureus; experiment: In vitro antibacterial activity of A5177 strain of Gram positive bacteria Staphylococcus aureus
[6] = tested on: Streptococcus pyogenes; experiment: In vitro antibacterial activity of 930 strain of Gram positive bacteria Streptococcus pyogenes
[7] = tested on: Streptococcus pyogenes; experiment: In vitro antibacterial activity of EES61 strain of Gram positive bacteria Streptococcus pyogenes
[8] = tested on: Streptococcus pyogenes; experiment: In vitro antibacterial activity of PIU2584 strain of Gram positive bacteria Streptococcus pyogenes
[9] = tested on: Staphylococcus aureus; experiment: In vitro antibacterial activity of A-5278 strain of Gram positive bacteria Staphylococcus aureus
[10] = tested on: Staphylococcus aureus; experiment: In vitro antibacterial activity of 6538P strain of Gram positive bacteria Staphylococcus aureus
[11] = tested on: Staphylococcus aureus; experiment: In vivo antibacterial activity of NCTC-10649 strain of Gram positive bacteria Staphylococcus aureus
[12] = tested on: Streptococcus pneumoniae; experiment: In vivo antibacterial activity of ATCC 6303 strain of Gram positive bacteria Streptococcus pneumoniae (95% confidence interval)
[13] = tested on: Staphylococcus aureus; experiment: In vivo antibacterial activity of NCTC-10649 strain of Gram positive bacteria Staphylococcus aureus (95% confidence interval)
[14] = tested on: Streptococcus pneumoniae; experiment: In vivo antibacterial activity of ATCC 6303 strain of Gram positive bacteria Streptococcus pneumoniae

Row | SMILES | MIC [1] | MIC [2] | MIC [3] | MIC [4] | MIC [5] | MIC [6] | MIC [7] | MIC [8] | MIC [9] | MIC [10] | MIC [11] | ED50 [12] | ED50 [13] | MIC [14]
1 | CC[C@H]1OC(=O)/C(C)=C/[C@H](C)[C@@H](O[C@@H]2O[C@H](C)C[C@H](N(C)C)[C@H]2O)[C@@](C)(OC)C[C@@H](C)C(=O)[C@H](C)[C@H]2N(NCc3cccnc3)C(=O)O[C@]12C | 8 µg/mL (≈ 11.4 µM) | 1 µg/mL (≈ 1.42 µM) | > 64 µg/mL | 0.06 µg/mL (≈ 0.0854 µM) | 0.39 µg/mL (≈ 0.555 µM) | > 64 µg/mL | 0.03 µg/mL (≈ 0.0427 µM) | 1 µg/mL (≈ 1.42 µM) | > 100 µg/mL | 0.39 µg/mL (≈ 0.555 µM) |  |  |  | 
2 | CC[C@H]1OC(=O)/C(C)=C/[C@H](C)[C@@H](O[C@@H]2O[C@H](C)C[C@H](N(C)C)[C@H]2O)[C@@](C)(OC)C[C@@H](C)[C@H]2[C@H](C)[C@H]3N(C(=O)O[C@]13C)N2CCCc1ccccc1 | > 64 µg/mL | 64 µg/mL (≈ 89.6 µM) | 64 µg/mL (≈ 89.6 µM) | 16 µg/mL (≈ 22.4 µM) | 50 µg/mL (≈ 70 µM) | 64 µg/mL (≈ 89.6 µM) | 16 µg/mL (≈ 22.4 µM) | 64 µg/mL (≈ 89.6 µM) | 100 µg/mL (≈ 140 µM) | 100 µg/mL (≈ 140 µM) |  |  |  | 
3 | CC[C@H]1OC(=O)/C(C)=C/[C@H](C)[C@@H](O[C@@H]2O[C@H](C)C[C@H](N(C)C)[C@H]2O)[C@@](C)(OC)C[C@@H](C)C(=O)[C@H](C)[C@H]2N(NCCCc3ccc(Cl)cc3)C(=O)O[C@]12C | 16 µg/mL (≈ 20.9 µM) | 1 µg/mL (≈ 1.31 µM) | 16 µg/mL (≈ 20.9 µM) | 0.03 µg/mL (≈ 0.0392 µM) | 0.05 µg/mL (≈ 0.0654 µM) | 16 µg/mL (≈ 20.9 µM) | 0.125 µg/mL (≈ 0.164 µM) | 1 µg/mL (≈ 1.31 µM) | 25 µg/mL (≈ 32.7 µM) | 0.1 µg/mL (≈ 0.131 µM) |  |  |  | 
4 | CC[C@H]1OC(=O)[C@H](C)[C@@H](O[C@H]2C[C@@](C)(OC)[C@@H](O)[C@H](C)O2)[C@H](C)[C@@H](O[C@@H]2O[C@H](C)C[C@H](N(C)C)[C@H]2O)[C@](C)(OC)C[C@@H](C)C(=O)[C@H](C)[C@@H](O)[C@]1(C)O [CLARITHROMYCIN] |  |  |  |  |  |  |  |  |  |  | 0.39 µg/mL (≈ 0.521 µM) | 27.2 mg/kg/day | 22.4 mg/kg/day | 0.03 µg/mL (≈ 0.0401 µM)
5 | CC[C@H]1OC(=O)/C(C)=C/[C@H](C)[C@@H](O[C@@H]2O[C@H](C)C[C@H](N(C)C)[C@H]2O)[C@@](C)(OC)C[C@@H](C)C(=O)[C@H](C)[C@H]2N(NCc3ccccc3CO)C(=O)O[C@]12C | 4 µg/mL (≈ 5.47 µM) | 1 µg/mL (≈ 1.37 µM) | > 128 µg/mL | 0.03 µg/mL (≈ 0.041 µM) | 0.2 µg/mL (≈ 0.273 µM) | > 128 µg/mL | 0.03 µg/mL (≈ 0.041 µM) | 0.5 µg/mL (≈ 0.683 µM) | > 100 µg/mL | 0.2 µg/mL (≈ 0.273 µM) |  |  |  | 
6 | CC[C@H]1OC(=O)/C(C)=C/[C@H](C)[C@@H](O[C@@H]2O[C@H](C)C[C@H](N(C)C)[C@H]2O)[C@@](C)(OC)C[C@@H](C)C(=O)[C@H](C)[C@H]2N(NCc3ccc(C(F)(F)F)cc3)C(=O)O[C@]12C | 16 µg/mL (≈ 20.8 µM) | 2 µg/mL (≈ 2.6 µM) | 16 µg/mL (≈ 20.8 µM) | 0.06 µg/mL (≈ 0.0779 µM) | 0.78 µg/mL (≈ 1.01 µM) | 16 µg/mL (≈ 20.8 µM) | 0.06 µg/mL (≈ 0.0779 µM) | 2 µg/mL (≈ 2.6 µM) | 100 µg/mL (≈ 130 µM) | 0.78 µg/mL (≈ 1.01 µM) |  |  |  | 
7 | CC[C@H]1OC(=O)/C(C)=C/[C@H](C)[C@@H](O[C@@H]2O[C@H](C)C[C@H](N(C)C)[C@H]2O)[C@@](C)(OC)C[C@@H](C)C(=O)[C@H](C)[C@H]2N(NCc3ccc(O)c(O)c3)C(=O)O[C@]12C | 32 µg/mL (≈ 43.6 µM) | 2 µg/mL (≈ 2.73 µM) | > 128 µg/mL | 1 µg/mL (≈ 1.36 µM) | 0.78 µg/mL (≈ 1.06 µM) | > 128 µg/mL | 1 µg/mL (≈ 1.36 µM) | 16 µg/mL (≈ 21.8 µM) | > 100 µg/mL | 0.78 µg/mL (≈ 1.06 µM) |  |  |  | 
8 | CC[C@H]1OC(=O)/C(C)=C/[C@H](C)[C@@H](O[C@@H]2O[C@H](C)C[C@H](N(C)C)[C@H]2O)[C@@](C)(OC)C[C@@H](C)C(=O)[C@H](C)[C@H]2N(NCc3ccc([N+](=O)[O-])cc3)C(=O)O[C@]12C | 8 µg/mL (≈ 10.7 µM) | 1 µg/mL (≈ 1.34 µM) | > 128 µg/mL | 0.03 µg/mL (≈ 0.0402 µM) | 0.05 µg/mL (≈ 0.0669 µM) | 128 µg/mL (≈ 171 µM) | 0.03 µg/mL (≈ 0.0402 µM) | 1 µg/mL (≈ 1.34 µM) | > 100 µg/mL | 0.05 µg/mL (≈ 0.0669 µM) |  |  |  | 
9 | CC[C@H]1OC(=O)/C(C)=C/[C@H](C)[C@@H](O[C@@H]2O[C@H](C)C[C@H](N(C)C)[C@H]2O)[C@@](C)(OC)C[C@@H](C)C(=O)[C@H](C)[C@H]2N(NCCCc3ccc(Cl)cc3Cl)C(=O)O[C@]12C | 16 µg/mL (≈ 20 µM) | 2 µg/mL (≈ 2.5 µM) | 8 µg/mL (≈ 10 µM) | 0.125 µg/mL (≈ 0.156 µM) | 0.39 µg/mL (≈ 0.488 µM) | 8 µg/mL (≈ 10 µM) | 0.06 µg/mL (≈ 0.0751 µM) | 1 µg/mL (≈ 1.25 µM) | 25 µg/mL (≈ 31.3 µM) | 0.39 µg/mL (≈ 0.488 µM) |  |  |  | 
10 | CC[C@H]1OC(=O)/C(C)=C/[C@H](C)[C@@H](O[C@@H]2O[C@H](C)C[C@H](N(C)C)[C@H]2O)[C@@](C)(OC)C[C@@H](C)C(=O)[C@H](C)[C@H]2N(NC/C=C/c3ccc(NC(C)=O)cc3)C(=O)O[C@]12C | 4 µg/mL (≈ 5.1 µM) | 1 µg/mL (≈ 1.27 µM) | > 64 µg/mL | 0.03 µg/mL (≈ 0.0382 µM) | 0.2 µg/mL (≈ 0.255 µM) | > 64 µg/mL | 0.06 µg/mL (≈ 0.0764 µM) | 1 µg/mL (≈ 1.27 µM) | > 100 µg/mL | 0.2 µg/mL (≈ 0.255 µM) |  |  |  | 
11 | CC[C@H]1OC(=O)/C(C)=C/[C@H](C)[C@@H](O[C@@H]2O[C@H](C)C[C@H](N(C)C)[C@H]2O)[C@@](C)(OC)C[C@@H](C)C(=O)[C@H](C)[C@H]2N(NCCCc3ccc(O)cc3)C(=O)O[C@]12C | 4 µg/mL (≈ 5.36 µM) | 1 µg/mL (≈ 1.34 µM) | > 64 µg/mL | 0.004 µg/mL (≈ 0.00536 µM) | 0.1 µg/mL (≈ 0.134 µM) | > 64 µg/mL | 0.004 µg/mL (≈ 0.00536 µM) | 0.25 µg/mL (≈ 0.335 µM) | > 100 µg/mL | 0.2 µg/mL (≈ 0.268 µM) |  |  |  | 
12 | CC[C@H]1OC(=O)/C(C)=C/[C@H](C)[C@@H](O[C@@H]2O[C@H](C)C[C@H](N(C)C)[C@H]2O)[C@@](C)(OC)C[C@@H](C)C(=O)[C@H](C)[C@H]2N(NCCCc3ccc([N+](=O)[O-])cc3)C(=O)O[C@]12C | 8 µg/mL (≈ 10.3 µM) | 1 µg/mL (≈ 1.29 µM) | 64 µg/mL (≈ 82.6 µM) | 0.03 µg/mL (≈ 0.0387 µM) | 0.1 µg/mL (≈ 0.129 µM) | 64 µg/mL (≈ 82.6 µM) | 0.03 µg/mL (≈ 0.0387 µM) | 1 µg/mL (≈ 1.29 µM) | > 100 µg/mL | 0.1 µg/mL (≈ 0.129 µM) |  |  |  | 
13 | CC[C@H]1OC(=O)/C(C)=C/[C@H](C)[C@@H](O[C@@H]2O[C@H](C)C[C@H](N(C)C)[C@H]2O)[C@@](C)(OC)C[C@@H](C)C(=O)[C@H](C)[C@H]2N(NCCCc3ccc(OC)cc3)C(=O)O[C@]12C | 16 µg/mL (≈ 21.1 µM) | 2 µg/mL (≈ 2.63 µM) | > 64 µg/mL | 0.06 µg/mL (≈ 0.0789 µM) | 0.39 µg/mL (≈ 0.513 µM) | 64 µg/mL (≈ 84.2 µM) | 0.03 µg/mL (≈ 0.0395 µM) | 1 µg/mL (≈ 1.32 µM) | > 100 µg/mL | 0.39 µg/mL (≈ 0.513 µM) |  |  |  | 
14 | CC[C@H]1OC(=O)/C(C)=C/[C@H](C)[C@@H](O[C@@H]2O[C@H](C)C[C@H](N(C)C)[C@H]2O)[C@@](C)(OC)C[C@@H](C)C(=O)[C@H](C)[C@H]2N(NCc3ccccc3O)C(=O)O[C@]12C | 2 µg/mL (≈ 2.79 µM) | 2 µg/mL (≈ 2.79 µM) | > 64 µg/mL | 0.06 µg/mL (≈ 0.0836 µM) | 0.2 µg/mL (≈ 0.279 µM) | > 64 µg/mL | 0.03 µg/mL (≈ 0.0418 µM) | 0.5 µg/mL (≈ 0.696 µM) | > 100 µg/mL | 0.2 µg/mL (≈ 0.279 µM) |  |  |  | 
15 | CC[C@H]1OC(=O)/C(C)=C/[C@H](C)[C@@H](O[C@@H]2O[C@H](C)C[C@H](N(C)C)[C@H]2O)[C@@](C)(OC)C[C@@H](C)C(=O)[C@H](C)[C@H]2N(NCc3ccc(Cl)cc3)C(=O)O[C@]12C | 16 µg/mL (≈ 21.7 µM) | 1 µg/mL (≈ 1.36 µM) | 32 µg/mL (≈ 43.5 µM) | 0.06 µg/mL (≈ 0.0815 µM) | 0.2 µg/mL (≈ 0.272 µM) | 32 µg/mL (≈ 43.5 µM) | 0.03 µg/mL (≈ 0.0407 µM) | 1 µg/mL (≈ 1.36 µM) | 100 µg/mL (≈ 136 µM) | 0.2 µg/mL (≈ 0.272 µM) |  |  |  | 
16 | CC[C@H]1OC(=O)/C(C)=C/[C@H](C)[C@@H](O[C@@H]2O[C@H](C)C[C@H](N(C)C)[C@H]2O)[C@@](C)(OC)C[C@@H](C)C(=O)[C@H](C)[C@H]2N(NCc3ccc(C#N)cc3)C(=O)O[C@]12C | 4 µg/mL (≈ 5.5 µM) | 0.5 µg/mL (≈ 0.688 µM) | > 128 µg/mL | 0.03 µg/mL (≈ 0.0413 µM) | 0.02 µg/mL (≈ 0.0275 µM) | 128 µg/mL (≈ 176 µM) | 0.015 µg/mL (≈ 0.0206 µM) | 0.5 µg/mL (≈ 0.688 µM) | > 100 µg/mL | 0.05 µg/mL (≈ 0.0688 µM) |  |  |  | 
